Laboratory results: patent publication US12410161B2, “Tetrahydrobenzo-quinoline sulfonamides derivative compounds” (UCB Biopharma SRL, priority 2019, dated 2025)

How the values were obtained:
[1] = target: T1, IgE-Tb binding to sFcεR1α-Y131A-AF488 (Homo sapiens, UniProt P01854, N146Q/N252Q); experiment: In vitro FRET assay of IgE-Tb binding to sFcεR1α receptor (protocol for examples 9 and 10, 18 hours incubation); settings: examples 9 and 10: compound incubated 30 minutes with IgE-Tb before sFcεR1α-Y131A-AF488; incubated 18 hours at room temperature; read-out: FRET IC50 range
T1 construct: fused on or other part: LanthaScreen amine-reactive terbium chelate label on IgE-Fc (about 4 Tb per IgE-Fc)
T1 sequence (P01854 whole entry N146Q/N252Q, the tested form may be a part): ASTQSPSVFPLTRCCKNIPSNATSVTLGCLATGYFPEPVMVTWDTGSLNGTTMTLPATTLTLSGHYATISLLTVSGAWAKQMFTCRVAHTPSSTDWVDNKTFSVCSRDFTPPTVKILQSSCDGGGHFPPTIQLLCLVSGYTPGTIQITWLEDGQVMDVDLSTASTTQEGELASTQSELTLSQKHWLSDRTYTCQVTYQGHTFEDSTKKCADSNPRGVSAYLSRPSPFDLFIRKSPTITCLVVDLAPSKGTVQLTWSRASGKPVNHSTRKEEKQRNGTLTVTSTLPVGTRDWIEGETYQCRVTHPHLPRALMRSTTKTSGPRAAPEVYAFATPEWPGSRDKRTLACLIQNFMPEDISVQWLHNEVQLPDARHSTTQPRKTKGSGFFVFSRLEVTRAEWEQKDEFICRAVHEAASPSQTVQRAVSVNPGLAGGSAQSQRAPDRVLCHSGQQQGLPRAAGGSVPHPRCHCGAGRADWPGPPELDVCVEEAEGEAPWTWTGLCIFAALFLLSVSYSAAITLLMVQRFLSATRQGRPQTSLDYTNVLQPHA
Method: In vitro Biochemical Assay:
Protocol for preparation of IgE-Tb reagent
86 nmoles of IgE-Fc(N265Q, N371Q) (Young et al., 1995) at 172 μM in 100 mM NaHCO3, pH 9.5 was added to 1 mg of LanthaScreen™ Amine Reactive Tb Chelate (ThermoFisher catalogue number PV3583) and incubated for 16 hours at 20° C. The material was then buffer exchanged into Phosphate Buffered Saline (being, 137 mM NaCl, 2.7 mM KCl, 10 mM Na2HPO4, 1.8 mM K2HPO4, pH 7.4) and the material quantified and the degree of Tb conjugation determined by measuring the absorption at 280 nm and 343 nm.
(§1) The integrity of the conjugated material was determined by analytical size exclusion chromatography on a 5200 HR 10×300 column (GE Healthcare). […]
175 nmoles of protein was added to 1 mg of Alexa Fluor™ 488 hydrazide (Invitrogen) and incubated for 16 hours at 22° C. […] The protein was buffer exchanged into Phosphate Buffered Saline (being, 137 mM NaCl, 2.7 mM KCl, 10 mM Na2HPO4, 1.8 mM K2HPO4, pH 7.4) and the material quantified and the degree of Alexa Fluor™ 488 conjugation determined by measuring the absorption at 280 nm and 495 nm.
as §1
The aim was to measure binding of IgE-Tb to receptor, and the inhibition thereof by compounds, using an in vitro Fluorescence Resonance Energy Transfer (FRET) Assay. […]

[2] = target: T2, IgE-Tb binding to soluble IgE receptor FcεRIα-Y131A-AF488 (Homo sapiens, UniProt P0DOX4, N265Q/N371Q); experiment: In vitro FRET assay of IgE-Tb binding to FcεRIα receptor (protocol for most examples, 2 hours incubation); settings: 5 nM IgE-Tb, 25 nM FcεRIα-Y131A-AF488; incubated 2 hours at room temperature; read-out: FRET IC50 range
T2 construct: 86 nmoles of IgE-Fc(N265Q, N371Q) (Young et al., 1995)
T2 sequence (P0DOX4 224-547 N265Q/N371Q limits assumed): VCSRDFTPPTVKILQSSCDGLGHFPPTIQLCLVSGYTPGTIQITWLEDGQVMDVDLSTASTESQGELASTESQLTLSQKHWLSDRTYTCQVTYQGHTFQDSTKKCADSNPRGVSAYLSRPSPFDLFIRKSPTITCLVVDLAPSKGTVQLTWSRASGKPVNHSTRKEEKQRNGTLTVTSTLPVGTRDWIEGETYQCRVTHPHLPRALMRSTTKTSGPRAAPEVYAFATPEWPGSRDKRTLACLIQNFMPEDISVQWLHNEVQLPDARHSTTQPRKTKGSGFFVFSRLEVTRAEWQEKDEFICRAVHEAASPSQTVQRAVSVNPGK
Method: In vitro Biochemical Assay: Protocol for preparation of IgE-Tb reagent 86 nmoles of […]) (Young et al., 1995) at 172 μM in 100 mM NaHCO3, pH 9.5 was added to 1 mg of LanthaScreenTM Amine Reactive Tb Chelate (ThermoFisher catalogue number PV3583) and incubated for 16 hours at 20° C. The material was then buffer exchanged into Phosphate Buffered Saline (being, 137 mM NaCl, 2.7 mM KCl, 10 mM Na2HPO4, 1.8 mM K2HPO4, pH 7.4) and the material quantified and the degree of Tb conjugation determined by measuring the absorption at 280 nm and 343 nm. The integrity of the conjugated material was determined by analytical size exclusion chromatography on a 5200 HR 10×300 column (GE Healthcare). Typical conjugation ratios were 4:1 Tb:IgE-Fc. • Young R J., Owens, […]., Chan C M W., Shi J., Hide […]., Henry A J., Sutton B J., and Gould H J (1995) Protein Engineering 8:193-199 Protocol for preparation of […] reagent […] Oxidation was quenched with the addition of 40 μl of ethanediol and incubation for 60 minutes at 22° C. The protein was buffer exchanged in to conjugation buffer (50 mM NaHCO3, 150 mM NaCl, pH 9.5) and concentrated to 750 μM. 175 nmoles of protein was added to 1 mg of Alexa FluorTM 488 hydrazide (Invitrogen) and incubated for 16 hours at 22° C. […] The protein was buffer exchanged into Phosphate Buffered Saline (being, 137 mM NaCl, 2.7 mM KCl, 10 mM Na2HPO4, 1.8 mM K2HPO4, pH 7.4) and the material quantified and the degree of Alexa FluorTM 488 conjugation determined by measuring the absorption at 280 nm and 495 nm. The integrity of the conjugated material was determined by analytical size exclusion chromatography on a 5200 HR 10×300 column (GE Healthcare). Typical conjugation ratios were 2:1 Alexa FluorTM488: sFcεR1α • Cook J P D., Henry […]., Owens R J., Sutton B J., and Gould H J (1997) Biochemistry 36:15579-15588 The aim was to measure binding of IgE-Tb to receptor, and the inhibition thereof by compounds, using an in vitro Fluorescence Resonance Energy Transfer (FRET) Assay. Reagents FRET reagents used were IgE labelled with Terbium (FRET donor), and soluble IgE receptor FcεRIα with a Y131A mutation, labelled with Alexa FluorTM 488 (FRET acceptor). Unlabelled FcεRIα was also used to generate a background control. The assay buffer consisted of 20 mM Tris pH7.2, 150 mM NaCl, and 0.002% Tween, 1% DMSO. Assay Reaction For most of the examples the assay was conducted according to the following: Each assay reaction was conducted in a volume of 25 μl in a 384-well half-volume plate. 10 point compound serial dilutions (3-fold) were generated in DMSO at a concentration of ×50 that of the final assay concentration (FAC). Compound solutions were then prepared by IgE-Tb diluting 10-fold in assay buffer. For the assay, 5 μl of diluted compound was added to 10 μl of IgE-Tb, followed by addition of 10111 FcεRIα-Y131A-AF488. FRET reagents FACs were 5 nM IgE-Tb, 25 nM FcεRIα-Y131A-AF488. Usually the top FAC of compound in the assay was 10 μM. The final DMSO concentration was 2%. The minimum signal (MIN) was measured by adding 5 μl unlabelled FcεRIα at 1 μM (FAC=200 nM) to the FRET reagents. The maximum FRET signal (MAX) was measured in wells containing FRET reagents but no compound. The assay was incubated for 2 hours at room temperature, protected from light and evaporation, and with gentle agitation. FRET Measurement Measurement of FRET for each well was carried out by exciting at 330 nm and measuring emission at 495/520 nm using an Envision plate reader (Perkin Elmer). FRET ratio was calculated as follows: Emission at 520/Emission at 495×1000. The FRET ratio was used for the data analysis. Data Analysis Z' was calculated as follows (σ=standard deviation and μ=mean): 1-((3×σMAX)+(3×σMIN))/(μMAX-/μMIN) Z' above 0.5 was considered a good assay. Background signal (MIN) was subtracted from all wells. Using the background subtracted values, the percent inhibition by compound in each test-well was calculated as follows: 100-Test-well FRET ratio/MAX FRET ratio×100. […]

Compound | IC50 [1] | IC50 [2]
CC(C)CNS(=O)(=O)c1c2c(cc3oc(C4CC4)nc13)CCC(n1cnnc1Nc1cc(C(F)F)nn1C)C2 (stereo not drawn) [Example 9, 2-cyclopropyl-6-[3-[[5-(difluoromethyl)-2-methylpyrazol-3-yl]amino]-1,2,4-triazol-4-yl]-N-(2-methylpropyl)-5,6,7,8-tetrahydrobenzo[f][1,3]benzoxazole-4-sulfonamide] | 0.05 to 0.1 µM | 
Cc1ccc2c(C(=O)NC3CCc4cc5cnc(C6CC6)cc5c(S(=O)(=O)NCC(C)C)c4C3)c[nH]c2c1 (stereo not drawn) [Example 11, N-[3-cyclopropyl-5-(2-methylpropylsulfamoyl)-6,7,8,9-tetrahydrobenzo[g]isoquinolin-7-yl]-6-methyl-1H-indole-3-carboxamide] |  | 0.1 to 1 µM
CC(C)CNS(=O)(=O)c1c2c(cc3c1NC(C1CC1)=NO3)CCCC2 [Example 10, 3-cyclopropyl-N-isobutyl-6,7,8,9-tetrahydro-4H-benzo[g][1,2,4]benzoxadiazine-5-sulfonamide] | 0.05 to 0.1 µM | 
